Counter-ions that a name gives are not always drawn.

The target in the experiment is recombinant human CCR5 receptor (Homo sapiens, UniProt P51681). Description: MIP-1α radioligand binding assay (scintillation proximity). The note with it: displacement of 0.1 nM iodinated MIP-1α; membranes from Chinese hamster ovary cells; average if tested more than once. As for the experimental part: The ability of compounds to inhibit the binding of MIP-1α was assessed by an in vitro radioligand binding assay. Membranes were prepared from Chinese hamster ovary cells which expressed the recombinant human CCR5 receptor. These membranes were incubated with 0.1 nM iodinated MIP-1α, scintillation proximity beads and various concentrations of the compounds of the invention in 96 well plates. The amount of iodinated MIP-1α bound to the receptor was determined by scintillation counting. Competition curves were obtained for compounds and the concentration of compound which displaced 50% of bound iodinated MIP-1α was calculated (IC50).
Sequence of recombinant human CCR5 receptor (P51681 whole entry): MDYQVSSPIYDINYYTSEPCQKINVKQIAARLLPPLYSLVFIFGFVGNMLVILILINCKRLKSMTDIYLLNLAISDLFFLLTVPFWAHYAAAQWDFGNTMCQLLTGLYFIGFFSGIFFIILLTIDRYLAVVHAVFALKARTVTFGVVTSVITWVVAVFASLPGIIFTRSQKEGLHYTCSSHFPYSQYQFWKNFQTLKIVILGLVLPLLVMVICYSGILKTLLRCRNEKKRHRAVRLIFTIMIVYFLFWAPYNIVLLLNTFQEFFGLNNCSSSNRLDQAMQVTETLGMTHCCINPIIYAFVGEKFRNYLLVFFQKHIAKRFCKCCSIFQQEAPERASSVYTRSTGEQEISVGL
In Table II the results are presented as Pic50 values. A Pic50 value is the negative log (to base 10) of the IC50 result, so an IC50 of 1 μM (that is 1×10^−6M) gives a Pic50 of 6. If a compounds was tested more than once then the data below is an average of the probative tests results.
On the technique in general: In a scintillation proximity assay essentially only radioactivity close to the scintillant gives light.
Consider `CCN(C(=O)Cc1ccc(S(C)(=O)=O)cc1)C1CCN(CC[C@H](NC(=O)c2cnccc2C(F)(F)F)c2ccccc2)CC1.Cl`, for which the Pic50 is 7.32.

Take `CCN(C(=O)Cc1ccc(S(C)(=O)=O)cc1)C1CCN(CC[C@H](NC(=O)C2CCOC(C)(C)C2)c2ccccc2)CC1` (stereo partly drawn) [Compound No. 81, (s)-N-[1-(3-phenyl-3-[2,2-dimethyltetrahydropyran-4-yl-carboxyamino]propyl)-4-piperidinyl]-N-ethyl-4-methanesulfonylphenylacetamide]: the Pic50 is 7.7. Same read-out and setting: with `CCN(C(=O)Cc1ccc(S(C)(=O)=O)cc1)C1CCN(CC[C@H](NC(=O)N2CCSCC2)c2ccccc2)CC1` [Compound No. 83, (S)-N-[1-(3-phenyl-3-[thiomorpholin-4-ylcarboxyamino]propyl)-4-piperidinyl]-N-ethyl-4-methanesulfonylphenylacetamide] the figure was 7.97. Turning to `CCN(C(=O)Cc1ccc(S(C)(=O)=O)cc1)C1CCN(CC[C@H](NC(=O)C(F)F)c2ccccc2)CC1` [Compound No. 84, (S)-N-[1-(3-phenyl-3-difluoroacetylaminopropyl)-4-piperidinyl]-N-ethyl-4-methanesulfonylphenylacetamide hydrochloride], the IC50 was 35.5 nM. Take `CCN(C(=O)Cc1ccc(S(C)(=O)=O)cc1)C1CCN(CC[C@H](NC(=O)CC(F)(F)F)c2ccccc2)CC1` [Compound No. 86, (S)-N-[1-(3-phenyl-3-[3,3,3-trifluoropropionylamino]propyl)-4-piperidinyl]-N-ethyl-4-methanesulfonylphenylacetamide hydrochloride]: the IC50 is 2 nM. With `CCN(C(=O)Cc1ccc(S(C)(=O)=O)cc1)C1CCN(CC[C@H](NC(=O)N2CCS(=O)(=O)CC2)c2ccccc2)CC1` [Compound No. 91, (S)-N-[1-(3-phenyl-3-[1,1-dioxothiomorpholin-4-ylcarboxyamino]propyl)-4-piperidinyl]-N-ethyl-4-methanesulfonylphenylacetamide], the Pic50 is 7.52. Regarding `CCN(C(=O)Cc1ccc(S(C)(=O)=O)cc1)C1CCN(CC[C@H](NC(=O)c2cccc(C#N)c2)c2ccccc2)CC1` [Compound No. 93, (S)-N-[1-(3-phenyl-3-[3-cyanobenzoylamino]propyl)-4-piperidinyl]-N-ethyl-4-methanesulfonylphenylacetamide], the IC50 is 16.2 nM. For the compound `CCN(C(=O)Cc1ccc(S(C)(=O)=O)cc1)C1CCN(C(C)C[C@H](NC(=O)C2CCOCC2)c2ccccc2)CC1` (stereo partly drawn) [Compound No. 95, (3′S)-N-[1-(1-methyl-3-phenyl-3-[tetrahydropyran-4-yl-carboxyamino]propyl)-4-piperidinyl]-N-ethyl-4-methanesulfonylphenylacetamide], the IC50 was 0.191 nM. For the compound `CCN(C(=O)Cc1ccc(S(C)(=O)=O)cc1)C1CCN(CC[C@H](NC(=O)CCC(F)(F)F)c2ccccc2)CC1` [Compound No. 96, (S)-N-[1-(3-phenyl-3-[4,4,4-trifluorobutyrylamino]propyl)-4-piperidinyl]-N-ethyl-4-methanesulfonylphenylacetamide hydrochloride], the IC50 was 2.34 nM. On the same count and under the same terms, with `CCN(C(=O)Cc1ccc(S(C)(=O)=O)cc1)C1CCN(CC[C@H](NC(=O)c2ccccc2)c2cccc(F)c2)CC1` [Compound No. 103, (S)-N-{1-[3-benzoylamino-3-(3-fluorophenyl)propyl]piperidin-4-yl}-N-ethyl-2-(4-methanesulfonyl-phenyl)acetamide] the figure was 0.437 nM; with `CCN(C(=O)Cc1ccc(S(C)(=O)=O)cc1)C1CCN(CC[C@H](NC(=O)c2cccc(F)c2)c2cccc(F)c2)CC1` [Compound No. 104, (S)-N-{1-[3-(3-fluorobenzoylamino)-3-(3-fluorophenyl)propyl]piperidin-4-yl}-N-ethyl-2-(4-methanesulfonyl-phenyl)acetamide], 0.447 nM.

As to `CCN(C(=O)Cc1ccc(S(C)(=O)=O)cc1)C1CCN(CC[C@H](NC(=O)CC(C)(C)C)c2cccc(F)c2)CC1` [Compound No. 106, (S)-N-{1-[3-(3,3-dimethylbutyrylamino)-3-(3-fluorophenyl)propyl]piperidin-4-yl}-N-ethyl-2-(4-methanesulfonyl-phenyl)acetamide], the IC50 is 0.562 nM.

`CCN(C(=O)Cc1ccc(S(C)(=O)=O)cc1)C1CCN(CC[C@H](NC(=O)CC(F)(F)F)c2cccc(F)c2)CC1` [Compound No. 108, (S)-N-{1-[3-(3,3,3-trifluoropropionylamino)-3-(3-fluorophenyl)propyl]piperidinyl}-N-ethyl-2-(4-methanesulfonyl-phenyl)acetamide]: the Pic50 worked out at 8.02. Same read-out and setting: with `CCN(C(=O)Cc1ccc(S(C)(=O)=O)cc1)C1CCN(CC[C@H](NC(=O)C2CCSCC2)c2ccccc2)CC1` [Compound No. 109, (S)-N-[1-(3-phenyl-3-[tetrahydrothiopyran-4-yl-carboxyamino]propyl)-4-piperidinyl]-N-ethyl-4-methanesulfonylphenylacetamide] the figure was 9.27. Regarding `CCN(C(=O)Cc1ccc(S(C)(=O)=O)cc1)C1CCN(CC[C@H](NC(=O)c2ccoc2)c2ccccc2)CC1` [compound 52], the IC50 is 14.1 nM.

Turning to `CCN(C(=O)Cc1ccc(S(C)(=O)=O)cc1)C1CCN(CC[C@H](NC(=O)c2ccc[nH]2)c2ccccc2)CC1` [compound 53], the IC50 was 15.5 nM. Same read-out and setting: with `CCN(C(=O)Cc1ccc(S(C)(=O)=O)cc1)C1CCN(CC[C@H](NC(=O)c2csnn2)c2ccccc2)CC1` [compound 63] the figure was 91.2 nM; with `CCN(C(=O)Cc1ccc(S(C)(=O)=O)cc1)C1CCN(CC[C@H](NC(=O)c2ccno2)c2ccccc2)CC1` [compound 64], 331 nM.

Turning to `CCN(C(=O)Cc1ccc(S(C)(=O)=O)cc1)C1CCN(CC[C@H](NC(=O)c2ccc(NC(C)=O)nc2)c2ccccc2)CC1` [compound 68], the IC50 was 66.1 nM. Still for that read-out and setting: with `CCN(C(=O)Cc1ccc(S(C)(=O)=O)cc1)C1CCN(CC[C@H](NC(=O)c2ccc(S(C)(=O)=O)s2)c2ccccc2)CC1` [compound 79] the figure was 28.2 nM; with `CCN(C(=O)Cc1ccc(S(C)(=O)=O)cc1)C1CCN(CC[C@H](NC(=O)c2cc(F)cc(F)c2)c2ccccc2)CC1` [compound 82], 20 nM. Same read-out and setting: in the case of `CCN(C(=O)Cc1ccc(S(C)(=O)=O)cc1)C1CCN(CC[C@H](NC(=O)C(C)CC(F)(F)F)c2ccccc2)CC1` (stereo partly drawn) [compound 87] it was 16.2 nM; in that of `CCN(C(=O)Cc1ccc(S(C)(=O)=O)cc1)C1CCN(CC[C@H](NC(=O)c2ccc(C(F)(F)F)o2)c2ccccc2)CC1` [compound 88], 33.1 nM.

With `CCN(C(=O)Cc1ccc(S(C)(=O)=O)cc1)C1CCN(CC[C@H](NC(=O)c2ccc(=O)[nH]c2)c2ccccc2)CC1` [compound 89], the IC50 is 57.5 nM. The same measure, in the same setting: in the case of `CCN(C(=O)Cc1ccc(S(C)(=O)=O)cc1)C1CCN(CC[C@H](NC(=O)c2cnc[nH]2)c2ccccc2)CC1` [compound 90] it was 245 nM. Same read-out and setting: with `CCN(C(=O)Cc1ccc(S(C)(=O)=O)cc1)C1CCN(CC[C@H](NC(=O)c2[nH]nnc2C(C)C)c2ccccc2)CC1` [compound 92] the figure was 631 nM. With `CCN(C(=O)Cc1ccc(S(C)(=O)=O)cc1)C1CCN(CC[C@H](NC(=O)c2ccc(C#N)cc2)c2ccccc2)CC1` [compound 94], the IC50 is 27.5 nM. Still for that read-out and setting: in the case of `CCN(C(=O)Cc1ccc(S(C)(=O)=O)cc1)C1CCN(CC[C@H](NC(=O)c2ccc(NC(C)=O)cc2)c2ccccc2)CC1` [compound 97] it was 26.9 nM; in that of `CCN(C(=O)Cc1ccc(S(C)(=O)=O)cc1)C1CCN(CC[C@H](NC(=O)c2cccc(S(C)(=O)=O)c2)c2ccccc2)CC1` [compound 98], 14.5 nM. The same measure, in the same setting: with `CCN(C(=O)Cc1ccc(S(C)(=O)=O)cc1)C1CCN(CC[C@H](NC(=O)c2ccc(S(C)(=O)=O)cc2)c2ccccc2)CC1` [compound 99] the figure was 40.7 nM. In the case of `CCN(C(=O)Cc1ccc(S(C)(=O)=O)cc1)C1CCN(CC[C@H](NC(=O)c2ccc(S(=O)(=O)NC)cc2)c2ccccc2)CC1` [compound 100], the IC50 is 23.4 nM. Still for that read-out and setting: in the case of `CCN(C(=O)Cc1ccc(S(C)(=O)=O)cc1)C1CCN(CC[C@H](NC(=O)c2ccc(NS(C)(=O)=O)cc2)c2ccccc2)CC1` [compound 101] it was 4.68 nM; in that of `CCN(C(=O)Cc1ccc(S(C)(=O)=O)cc1)C1CCN(CC[C@H](NC(=O)c2ccc(C(F)(F)F)cc2)c2ccccc2)CC1` [compound 102], 9.55 nM. Turning to `CCN(C(=O)Cc1ccc(S(C)(=O)=O)cc1)C1CCN(CC[C@H](NC(=O)C2CCOCC2)c2cccc(F)c2)CC1` [compound 105], the IC50 was 2.88 nM. On the same count and under the same terms, with `CCN(C(=O)Cc1ccc(S(C)(=O)=O)cc1)C1CCN(CC[C@H](NC(=O)N2CCCCC2)c2cccc(F)c2)CC1` [compound 107] the figure was 0.933 nM; with `CCN(C(=O)Cc1ccc(S(C)(=O)=O)cc1)C1CCN(CC[C@H](NC(=O)CC(C)(C)O)c2ccccc2)CC1` [compound 110], 45.7 nM.

Broadly, the IC50 is the concentration at which inhibition is half-maximal.
